Experimental data: ChEMBL document CHEMBL1128409, “Potent inhibitors of proteasome” (J Med Chem, 1995)
pIC50: −log10 of the molar value. Where a SMILES comes first, the peptide text is derived from it. The star is where a group is joined. MeOSuc = COC(=O)CCC(=O)*

molecular target: 20S proteasome; experiment: Compound was evaluated for inhibitory activity against 20S proteasome from human liver and brain; assay type: subcellular

SMILES | pIC50
CC(C)CC(C=O)NC(=O)C(CCC/N=C(\N)N[N+](=O)[O-])NC(=O)C(CCCCCCCCN1C(=O)c2ccccc2C1=O)C1CCCC1 (configuration not stated) | 8.70
CC(C)CC(C=O)NC(=O)C(CCC/N=C(\N)N[N+](=O)[O-])NC(=O)C(CCCCCCCCC#N)C1CCCC1 (configuration not stated) | 8.22
COC(=O)CCCCCCCC(=O)NC(CCC/N=C(\N)N[N+](=O)[O-])C(=O)NC(C=O)CC(C)C (configuration not stated) | 7.40

Continued, values first:

pIC50 | SMILES
6.00 | COC(=O)CCC(=O)N[C@@H](CCC(=O)O)C(=O)N[C@H](C(=O)N[C@@H](CCCCN)C(=O)N[C@@H](Cc1ccccc1)C(=O)O)C(C)C (MeOSuc-EVKF-OH)
7.02 | COC(=O)CCCCCCCC(=O)NC(CCC/N=C(\N)NS(=O)(=O)c1c(C)cc(OC)c(C)c1C)C(=O)NC(C=O)CC(C)C (configuration not stated)
< 5.52 | COC(=O)CCCCCCCC(=O)N[C@H](CCC/N=C(\N)NS(=O)(=O)c1c(C)c(C)c2c(c1C)CCC(C)(C)O2)C(=O)NC(C=O)CC(C)C (some centres not stated)
7.70 | COC(=O)CCCCCCCC(=O)NC(CCC/N=C(\N)NS(=O)(=O)c1c(C)c(C)c2c(c1C)CCC(C)(C)O2)C(=O)NC(C=O)CC(C)C (single isomer, unassigned)
